Consider 11 compounds from ChEMBL document CHEMBL1201862, “PubChem BioAssay data set” (2004).

Broadly, the GI50 is the concentration at which growth is held to half of that of the control.

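A five-concentration, 48-hour dose response in 96-well plates underlies each endpoint, interpolated linearly between surrounding concentrations. Abbreviation: GI50, concentration required for 50% inhibition of growth.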 The source made the active and inactive calls. Cut-off read from the data, not from the text of the source: active = GI50 up to about 1.1 µM and inactive = higher.

Experiment in all cases: DTP human tumour cell line panel, 48 h
Assay [1] concerns SR.
For assay [2], the system named is Hs-578T.
In assay [3] the test system is MDA-N.
Assay [4] deals with SF-539.
The test system of assay [5] is MOLT-4.
Assay [6] has as its system SK-OV-3.
For assay [7], the system named is BT-549.
Assay [8] concerns SK-MEL-28.
Assay [9] relates to A498.
The subject of assay [10] is OVCAR-8.
For assay [11], the system named is PC-3.
The test system of assay [12] is MCF7.
Assay [13] deals with MDA-MB-231.
In assay [14] the test system is T47D.
The test system of assay [15] is CCRF-CEM.
In assay [16] the test system is NCI-H460.
Assay [17] concerns SNB-75.
The test system of assay [18] is HCT-15.
Assay [19] deals with HL-60.
Assay [20] relates to NCI/ADR-RES.

For `CCCCCCCCCCCCNC(=O)NCC(OCC)OCC`, the GI50 in [1], in [2], in assay [3], in assay [4], in [5] and in assay [6] was > 10 µM (inactive) each time. Also, the GI50 in [7], in [8], in [9], in [10], in assay [11] and in [12] was > 10 µM (inactive) in each case. For the same compound, the GI50 in assay [13] was > 10 µM (inactive); in assay [14], > 10 µM (inactive); in assay [15] it was > 10 µM (inactive); in assay [16] it was > 10 µM (inactive); in [17], > 10 µM (inactive); in assay [18] it was above 10 µM.

For the compound `CC(C)(C)SC1=CCC[C@@H](P(=O)(c2ccccc2)c2ccccc2)[C@@H]2CCC[C@@H]12`, the GI50 in assay [1] is 17 µM (inactive); in assay [2] it was 20.7 µM (inactive); in assay [3], 16.1 µM (inactive); in [4], 18.8 µM (inactive); in [5], 16 µM (inactive); in assay [6] it was 15.9 µM (inactive). The GI50 in [7] was 17.8 µM (inactive); in assay [8] it was 24.3 µM (inactive); in assay [19] it was 20 µM (inactive); in assay [9], 15.8 µM (inactive); in [10], 18.3 µM (inactive); in [20], 17.2 µM (inactive). The GI50 in assay [11] was 14 µM (inactive); in assay [12], 16.2 µM (inactive); in [14], 14 µM (inactive); in [15], 24.6 µM (inactive); in [16], 15.7 µM (inactive); in assay [17], 11.8 µM (inactive). Moreover, growth in [18] was halved (GI50) at 16.6 µM.

Take `CCOC(=O)C(C)c1nc2cc(F)c(F)cc2[nH]c1=O` (stereo unspecified): the GI50 in assay [2], in assay [3], in [4], in [5], in assay [6] and in [7] was > 100 µM (inactive) each time. Moreover, the GI50 in [8], in assay [19], in [10], in assay [20], in [11] and in assay [12] was > 100 µM (inactive) in each case. For the same compound, the GI50 in [13] is > 100 µM (inactive); in assay [14], 22.9 µM (inactive); in assay [15], > 100 µM (inactive); in assay [16] it was > 100 µM (inactive); in assay [17] it was > 100 µM (inactive); in assay [18] it was above 100 µM.

As for `CCCc1cn2c(/C=N/N=C(N)N)c(-c3c(OC)ccc(OC)c3[N+](=O)[O-])nc2s1`, the GI50 was 2.03 µM (inactive) in [1]; 13.1 µM (inactive) in assay [2]; 16.9 µM (inactive) in assay [4]; 1.94 µM (inactive) in [5]; 18.1 µM (inactive) in [6]; 10.9 µM (inactive) in assay [7]. The GI50 is 4.84 µM (inactive) in assay [8]; 7.46 µM (inactive) in assay [19]; 21.2 µM (inactive) in assay [9]; 14.6 µM (inactive) in assay [10]; 19.8 µM (inactive) in assay [20]; 9.59 µM (inactive) in [11]. Further, the GI50 in [12] is 2.81 µM (inactive); in [13], 4.07 µM (inactive); in assay [14] it was 3.7 µM (inactive); in assay [15], 2.84 µM (inactive); in assay [16], 12.3 µM (inactive); in [17], 16.3 µM (inactive). The compound further had a GI50 in assay [18] of 18.2 µM.

In the case of `O=C(N/N=C1/C(=O)c2c3ccccc3cc3cccc1c23)c1cccc(Cl)c1`, the GI50 is > 100 µM (inactive) in assay [1]; 16 µM (inactive) in assay [2]; > 100 µM (inactive) in assay [3]; 90.2 µM (inactive) in [4]; 0.711 µM (active) in assay [5]; > 100 µM (inactive) in [6]. Also, the GI50 in assay [7], in assay [8], in assay [19], in assay [9], in [10] and in assay [20] was > 100 µM (inactive) in each case. Moreover, the GI50 is > 100 µM (inactive) in assay [11]; > 100 µM (inactive) in [13]; 67.6 µM (inactive) in assay [15]; 79.4 µM (inactive) in assay [16]; > 100 µM (inactive) in [17]; above 100 µM in assay [18].

As to `C=C1C(=O)OC2C1C(=O)C/C(C)=C/CCC1(C)OC21` (stereo unspecified), the GI50 in assay [1] is 3.33 µM (inactive); in assay [2] it was 44.1 µM (inactive); in [4] it was 15 µM (inactive); in [5], 17.3 µM (inactive); in [6] it was 29.6 µM (inactive); in [7] it was 23.3 µM (inactive). Also, the GI50 was 15.2 µM (inactive) in [8]; 1.33 µM (inactive) in assay [19]; 23.1 µM (inactive) in assay [9]; 25.6 µM (inactive) in assay [10]; 31 µM (inactive) in assay [20]; 18.1 µM (inactive) in assay [11]. The GI50 was 8.63 µM (inactive) in assay [12]; 20.8 µM (inactive) in assay [13]; 11.2 µM (inactive) in assay [14]; 2.79 µM (inactive) in [15]; 21.2 µM (inactive) in assay [16]; 25.4 µM (inactive) in assay [17]. The compound further gave a 50% growth inhibitory concentration (GI50) in [18] of 11.4 µM.

As for `CC(C)=C[C@@H]1C[C@H](C)c2c(O)cc(C)c3c2C1=C(C)C(=O)C3=O` [ELISABATIN A], the GI50 in assay [2] was 19.6 µM (inactive); in [3], 16.3 µM (inactive); in assay [4] it was 17.9 µM (inactive); in [5], 28.6 µM (inactive); in assay [6] it was 16.7 µM (inactive); in assay [7], 13.7 µM (inactive). Further, the GI50 in assay [8] was 15.5 µM (inactive); in [19], 21.9 µM (inactive); in assay [9], 19.1 µM (inactive); in assay [10] it was 16.9 µM (inactive); in [20] it was 18.9 µM (inactive); in assay [11], 10.5 µM (inactive). For the same compound, the GI50 in assay [12] was 22.8 µM (inactive); in [13] it was 15.6 µM (inactive); in assay [15], 22.4 µM (inactive); in assay [16], 18 µM (inactive); in assay [17], 17.4 µM (inactive); in assay [18] it was 13.6 µM.

Turning to `O=C1c2cccnc2S(=O)(=O)N1c1ccc(Br)cc1`, the GI50 is 41.3 µM (inactive) in [1]; > 100 µM (inactive) in assay [2]; > 100 µM (inactive) in [3]; > 100 µM (inactive) in assay [5]; > 100 µM (inactive) in assay [6]; 79.1 µM (inactive) in assay [7]. Further, the GI50 in assay [8] is > 100 µM (inactive); in [19], < 0.01 µM (active); in assay [9], > 100 µM (inactive); in [10], > 100 µM (inactive); in assay [20], > 100 µM (inactive); in assay [11], 72.4 µM (inactive). Further, the GI50 in assay [13] is > 100 µM (inactive); in assay [14], > 100 µM (inactive); in assay [15], 43 µM (inactive); in [17] it was 95.1 µM (inactive); in assay [18] it was above 100 µM.

In the case of `CN(C)CCn1c(=O)oc2cc(C(=O)CN3CCOCC3)ccc21`, the GI50 in assay [1], in assay [2], in assay [3], in assay [4], in assay [5] and in [6] was > 100 µM (inactive) each time. In addition, the GI50 in [7], in assay [8], in assay [19], in [10], in assay [20] and in assay [11] was > 100 µM (inactive) in each case. Moreover, the GI50 in assay [12] was > 100 µM (inactive); in assay [13], > 100 µM (inactive); in [15], > 100 µM (inactive); in assay [16] it was > 100 µM (inactive); in assay [17] it was > 100 µM (inactive); in assay [18] it was above 100 µM.

As for `CCSC12CC3c4cccc5c4C(CN5C(=O)c4ccccc4)CC3(O1)N(C)C2=O` (stereo unspecified), the GI50 in assay [1] was 28.7 µM (inactive); in assay [2], 46.3 µM (inactive); in assay [3], 25.3 µM (inactive); in [4], 26.9 µM (inactive); in assay [5], 22.2 µM (inactive); in [6] it was > 100 µM (inactive). Further, the GI50 was 26.1 µM (inactive) in assay [7]; 48.4 µM (inactive) in [8]; 22.7 µM (inactive) in assay [19]; 32.1 µM (inactive) in assay [9]; 31.5 µM (inactive) in assay [10]; 29 µM (inactive) in [20]. Besides, the GI50 was 22.9 µM (inactive) in assay [11]; 27.9 µM (inactive) in [13]; 17.7 µM (inactive) in [14]; 28.6 µM (inactive) in assay [15]; 37.8 µM (inactive) in assay [16]; 73.6 µM (inactive) in [17]. Moreover, the 50% growth inhibitory concentration (GI50) in assay [18] was 29.4 µM.

As for `C1=N\CCN2CCN(CC/N=C\c3ccc(cc3)OCc3cccc(n3)COc3ccc/1cc3)CC2`, the GI50 was > 50 µM (inactive) in assay [1]; 32.7 µM (inactive) in [2]; > 50 µM (inactive) in [4]; > 50 µM (inactive) in [5]; > 50 µM (inactive) in assay [6]; > 50 µM (inactive) in assay [7]. The GI50 in [8], in [19], in assay [9], in assay [10], in assay [20] and in assay [11] was > 50 µM (inactive) each time. In addition, the GI50 in assay [12] was > 50 µM (inactive); in [13], > 50 µM (inactive); in assay [15], > 50 µM (inactive); in assay [16], > 50 µM (inactive); in assay [17], > 50 µM (inactive); in assay [18], above 50 µM.
